Assay results reported in publication PMC10301922, “Anti-Oxidant, Anti-Mutagenic Activity and Safety Evaluation of Antrocin” (Toxics, 2023).
Several values for one entry are separate records, joined by “and”; a condition that tells them apart may be missing. Identical values can stand only once.

Experiments:
Total polyphenol content = settings: 10 mg/mL antrocin
Description: We added 40–50 μL of sample to a 96-well plate and made it up to 100 μL with ddH2O. For each sample, a parallel sample was prepared as a sample background control. Vanillic acid was used as a positive control. We added 50 μL of 50 mM vanillic acid solution per well to the desired wells and made it up to 100 μL with ddH2O. We adjusted the volume of all standard curves to 100 µL with ddH2O. We then added 20 μL PC (Phenolic Compounds) Probe to the standard curve and sample reaction wells, and 20 μL PC Assay Buffer to the sample background wells. For standard curve preparation, we added 0, 2, 4, 6, 8, and 10 μL of 1 mM catechin standards to clear 96-well plates to generate 0, 2, 4, 6, 8, and 10 nmol/well catechin standard, respectively. We adjusted the volume of all standard curves to 100 µL with ddH2O. […] The absorbance was measured at 480 nm.
We subtracted the 0 nmol standard OD480 value from all standard curve readings and drew a catechin standard curve. If the sample background well reads were significant, the sample background control reads were subtracted from their paired sample reads. […]
B stands for the amount of diazo chromophore, calculated from the standard curve (nmol of catechin); D stands for the sample dilution factor (for undiluted samples, D = 1); V stands for the volume of sample added to the well (in µL).

[1] = Ferric reducing ability of plasma (FRAP); settings: 10 mg/mL antrocin
Description: The following methodology describes the FRAP assay: Add 10 µL of sample to a 96-well plate. For each sample, a parallel sample was prepared as a sample background control. Add 4 µL of FRAP Positive Control to each well and make up to 10 µL with FRAP Assay Buffer. For standard curve preparation, add 0, 2, 4, 6, 8, and 10 µL of a 2 mM ferrous standard solution to the wells of a 96-well plate to generate 0, 4, 8, 12, 16, and 20 nmol/well of ferrous iron, respectively. Adjust the volume to 10 µL/well with FRAP Assay Buffer. Mix sufficient reagents for the number of tests to be performed, including: Add 190 µL of Reaction Mix to the wells of the standard curve, positive control, and test samples. Add 190 µL Background Control Mix to the sample background control wells and mix well. After 60 min of reaction at 37 °C, measure the absorbance at 594 nm. Subtract 0 nmol standard readings from all standard curve readings to draw a ferrous standard curve. If the sample background control is significant, subtract the background control reading from its paired sample reading. Apply the sample OD value to the ferrous standard curve to obtain the reduced ferrous ion B nmol generated during the reaction.
Use the following calculation to determine the mM ferrous equivalence of the sample.
Sample FRAP or mM ferrous equivalents = B × D/V = nmol/µL(2) […]

[2] = Trolox equivalent antioxidant capacity (TEAC); settings: 10 mg/mL antrocin
Description: The following methodology describes the TEAC assay: Add 40 μL of sample to a 96-well plate and adjust the volume to 100 μL with ddH2O. The absorbance of the sample should be within the linear range of the standard curve (0–20 nmol/well). The detection limit of this assay is approximately 0.1 nmol (or 1 µM) Trolox per well. For Trolox Standard Curve Preparation, dissolve lyophilized Trolox Standard in 20 µL of pure DMSO, add 980 µL of distilled water and mix well to generate a 1 mM solution, then aliquot the solution and store it at −20 °C for stable storage for 4 months. Add 0, 4, 8, 12, 16, 20 µL of Trolox standard to each well. Adjust the total volume to 100 µL with ddH2O to obtain 0, 4, 8, 12, 16, 20 nmol of Trolox standards, respectively. For preparation of working solutions, dilute 1 part of Cu^2+ reagent with 49 parts of Assay Diluent, and dilute enough working solution for detection. Add 100 µL of Cu^2+ working solution to standard wells and sample wells. After capping the plate and reacting at room temperature for 1.5 h, measure the absorbance at 570 nm. Draw a Trolox standard curve by subtracting the 0 nmol standard reading from all standard curve readings. […]
• Sa = the amount of sample (in nmol) read from the standard curve. • Sv = the undiluted sample volume added to the well.

[3] = test system: lung cancer tumor xenografts; set-up: method as in PMID 23880305; settings: 5 mg/kg/day intraperitoneal; cited from earlier work
ICR male mice = assay: In vivo mammalian erythrocyte micronucleus test
Sprague Dawley rats = assay: 28-day oral toxicity test: absolute organ weight
[4] = female rats, 7.5 mg/kg oral 28 d
[5] = female rats, 37.5 mg/kg oral 28 d
[6] = male rats, 37.5 mg/kg oral 28 d

C=C1CC[C@H]2C(C)(C)CCC[C@@]23C(=O)OC[C@@H]13 [Antrocin, (-)-Antrocin]
Total Phenolic Contents (mM Catechin Equivalents) (Total polyphenol content): 0.016 ± 0.000 mM Catechin equivalents and 0.016 ± 0.000 ^1 mM Catechin equivalents | Ferric Reducing Ability of Plasma (mM Ferrous Equivalent) [1]: 0.218 ± 0.004 mM Ferrous Equivalent | Trolox Equivalent Antioxidant Capacity (mM Trolox Equivalents) [2]: 0.508 ± 0.003 mM Trolox equivalents | growth of lung cancer tumor xenografts [3]: significantly suppressed the growth | Mn-RETs/1000RETs (‰) (ICR male mice; 48 h, 100 mg/kg oral gavage): 2.2 ± 0.9 ‰ | RETs/1000RBCs (‰) (ICR male mice; 48 h, 100 mg/kg oral gavage): 20.4 ± 2.4 ‰ | frequencies of micronuclei (ICR male mice; 48 h, 250 mg/kg): 18.8 ± 1.9 ‰ | Mn-RETs/1000RETs (‰) (ICR male mice; 48 h, 250 mg/kg oral gavage): 1.5 ± 0.2 ‰ | RETs/1000RBCs (‰) (ICR male mice; 48 h, 250 mg/kg oral gavage): 18.8 ± 1.9 ‰ | frequencies of micronuclei (ICR male mice; 48 h, […]): 20.8 ± 2.5 ‰ | frequencies of micronuclei (ICR male mice; 72 h, 100 mg/kg): 31.0 ± 6.1 ‰ | Mn-RETs/1000RETs (‰) (ICR male mice; 72 h, 100 mg/kg oral gavage): 3.0 ± 1.0 ‰ | RETs/1000RBCs (‰) (ICR male mice; 72 h, 100 mg/kg oral gavage): 31.0 ± 6.1 ‰ | frequencies of micronuclei (ICR male mice; 72 h, 250 mg/kg): 26.5 ± 4.6 ‰ | Mn-RETs/1000RETs (‰) (ICR male mice; 72 h, 250 mg/kg oral gavage): 2.2 ± 0.5 ‰ | RETs/1000RBCs (‰) (ICR male mice; 72 h, 250 mg/kg oral gavage): 26.5 ± 4.6 ‰ | frequencies of micronuclei (ICR male mice; 72 h, […]): 28.9 ± 5.0 ‰ | frequency of micronuclei versus control (ICR male mice; antrocin-treated groups after 48 or 72 h): no significant changes | Testis/Ovary (Sprague Dawley rats; female rats (ovary), 7.5 mg/kg oral 28 d): 0.07 ± 0.02 g | Testis/Ovary (Sprague Dawley rats; female rats (ovary), 37.5 mg/kg oral 28 d): 0.10 ± 0.01 g | Adrenal (Sprague Dawley rats; [4]): 0.05 ± 0.01 g | Brain (Sprague Dawley rats; [4]): 1.9 ± 0.1 g | Heart (Sprague Dawley rats; [4]): 0.9 ± 0.1 g | Kidney (Sprague Dawley rats; [4]): 1.8 ± 0.1 g | Liver (Sprague Dawley rats; [4]): 8.5 ± 0.7 g | Spleen (Sprague Dawley rats; [4]): 0.4 ± 0.1 g | Thymus (Sprague Dawley rats; [4]): 0.4 ± 0.1 g | Adrenal (Sprague Dawley rats; [5]): 0.05 ± 0.01 g | Brain (Sprague Dawley rats; [5]): 2.0 ± 0.1 g | Heart (Sprague Dawley rats; [5]): 1.0 ± 0.1 g | Kidney (Sprague Dawley rats; [5]): 1.7 ± 0.1 g | Liver (Sprague Dawley rats; [5]): 7.8 ± 0.5 g | Spleen (Sprague Dawley rats; [5]): 0.4 ± 0.0 g | Thymus (Sprague Dawley rats; [5]): 0.4 ± 0.1 g | Testis/Ovary (Sprague Dawley rats; male rats (testis), 7.5 mg/kg oral 28 d): 3.1 ± 0.2 g | Testis/Ovary (Sprague Dawley rats; male rats (testis), 37.5 mg/kg oral 28 d): 3.2 ± 0.2 g | Adrenal (Sprague Dawley rats; male rats, 7.5 mg/kg oral 28 d): 0.05 ± 0.01 g | Brain (Sprague Dawley rats; male rats, 7.5 mg/kg oral 28 d): 2.1 ± 0.2 g | Heart (Sprague Dawley rats; male rats, 7.5 mg/kg oral 28 d): 1.3 ± 0.2 g | Kidney (Sprague Dawley rats; male rats, 7.5 mg/kg oral 28 d): 2.8 ± 0.4 g | Liver (Sprague Dawley rats; male rats, 7.5 mg/kg oral 28 d): 12.2 ± 1.9 g | Spleen (Sprague Dawley rats; male rats, 7.5 mg/kg oral 28 d): 0.6 ± 0.1 g | Thymus (Sprague Dawley rats; male rats, 7.5 mg/kg oral 28 d): 0.6 ± 0.1 g | Adrenal (Sprague Dawley rats; [6]): 0.06 ± 0.00 g | Brain (Sprague Dawley rats; [6]): 2.0 ± 0.1 g | Heart (Sprague Dawley rats; [6]): 1.3 ± 0.2 g | Kidney (Sprague Dawley rats; [6]): 2.7 ± 0.2 g | Liver (Sprague Dawley rats; [6]): 11.1 ± 1.2 g | Spleen (Sprague Dawley rats; [6]): 0.6 ± 0.1 g | Thymus (Sprague Dawley rats; [6]): 0.4 ± 0.1 g
